Source: PubChem BioAssay AID248 (DTP/NCI, 2004)
Several values for one entry are separate records, joined by “and”; a condition that tells them apart may be missing. Identical values can stand only once. Inconclusive results and toxic doses are left out. Rule as the data show it: active = T/C of 150% or more; inactive = T/C below 125%.

Tested on: L1210 leukemia ip in BDF1 mice, survival T/C
Experiment: NCI In Vivo Anticancer Drug Screen. Data for tumor model L1210 Leukemia (intraperitoneal) in B6D2F1 (BDF1) mice
Settings: endpoint: mean survival time, higher = longer survival
In short: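 Each compound was tested against a transplantable tumor grown in mice. The endpoint was survival, with treated animals benchmarked against vehicle controls as a simple ratio.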

[1] = dose: 100.0 mg/kg/injection, schedule: Q04DX003 (ip), vehicle: saline with Tween-80
[2] = dose: 200.0 mg/kg/injection, schedule: Q04DX003 (ip), vehicle: saline with Tween-80
[3] = dose: 400.0 mg/kg/injection, schedule: Q04DX003 (ip), vehicle: saline with Tween-80
[4] = dose: 100.0 mg/kg/injection, schedule: Q04DX003 (ip), vehicle: saline
[5] = dose: 200.0 mg/kg/injection, schedule: Q04DX003 (ip), vehicle: saline
[6] = dose: 100.0 mg/kg/injection, schedule: Q01DX009 (ip), vehicle: saline with Tween-80
[7] = dose: 50.0 mg/kg/injection, schedule: Q01DX001 (ip), vehicle: saline
[8] = dose: 100.0 mg/kg/injection, schedule: Q01DX001 (ip), vehicle: saline
[9] = dose: 100.0 mg/kg/injection, schedule: Q01DX009 (ip), vehicle: Klucel (hydroxypropylcellulose) (HPC)
[10] = dose: 100.0 mg/kg/injection, schedule: Q04DX003 (ip), vehicle: Klucel (hydroxypropylcellulose) (HPC)
[11] = dose: 200.0 mg/kg/injection, schedule: Q01DX009 (ip), vehicle: Klucel (hydroxypropylcellulose) (HPC)
[12] = dose: 200.0 mg/kg/injection, schedule: Q04DX003 (ip), vehicle: Klucel (hydroxypropylcellulose) (HPC)
[13] = dose: 200.0 mg/kg/injection, schedule: Q01DX009 (ip), vehicle: saline with Tween-80
[14] = dose: 400.0 mg/kg/injection, schedule: Q01DX009 (ip), vehicle: saline with Tween-80
[15] = dose: 200.0 mg/kg/injection, schedule: Q01DX001 (ip), vehicle: saline

Measured: T/C

NC(N)=N/N=C/N1CCCCC1
inactive: dose: 60.0 mg/kg/injection, schedule: Q01DX Z (oral), vehicle: methylcellulose (MC) 90 % of control | dose: 120.0 mg/kg/injection, schedule: Q01DX Z (oral), vehicle: methylcellulose (MC) 100 % of control | dose: 240.0 mg/kg/injection, schedule: Q01DX Z (ip), vehicle: methylcellulose (MC) 110 % of control | dose: 240.0 mg/kg/injection, schedule: Q01DX Z (oral), vehicle: methylcellulose (MC) 89 % of control | dose: 300.0 mg/kg/injection, schedule: Q01DX Z (oral), vehicle: methylcellulose (MC) 100 % of control | dose: 360.0 mg/kg/injection, schedule: Q01DX Z (ip), vehicle: methylcellulose (MC) 103 % of control | dose: 400.0 mg/kg/injection, schedule: Q01DX Z (oral), vehicle: methylcellulose (MC) 105 % of control | dose: 480.0 mg/kg/injection, schedule: Q01DX Z (ip), vehicle: methylcellulose (MC) 107 % of control | dose: 480.0 mg/kg/injection, schedule: Q01DX Z (oral), vehicle: methylcellulose (MC) 101 % of control | dose: 720.0 mg/kg/injection, schedule: Q01DX Z (ip), vehicle: methylcellulose (MC) 95 % of control

O=C(COc1cccc(Cl)c1Cl)Nc1cccnc1
inactive: [1] 102 % of control | [2] 96 % of control | [3] 98 % of control

O=C1CSC(=S)N1c1ccc2c(c1)OCO2
inactive: [4] 94 % of control | [5] 90 % of control | dose: 400.0 mg/kg/injection, schedule: Q04DX003 (ip), vehicle: saline 95 % of control

COCc1ccc(C(=O)O)cc1
inactive: dose: 100.0 mg/kg/injection, schedule: Q01DX009 (ip), vehicle: gum acacia 101 % of control | dose: 200.0 mg/kg/injection, schedule: Q01DX009 (ip), vehicle: gum acacia 97 % of control | dose: 400.0 mg/kg/injection, schedule: Q01DX009 (ip), vehicle: gum acacia 101 % of control

O=C(N=c1scc(-c2ccc(Br)cc2)n1-c1cccc2ccccc12)c1ccccc1F
inactive: dose: 25.0 mg/kg/injection, schedule: Q01DX009 (ip), vehicle: saline with Tween-80 89 % of control | dose: 50.0 mg/kg/injection, schedule: Q01DX009 (ip), vehicle: saline with Tween-80 87 % of control | [6] 93 % of control

C=C1C(=O)OC2CCC(O)C12 (centres undefined)
inactive: dose: 25.0 mg/kg/injection, schedule: Q01DX001 (ip), vehicle: saline 94 % of control | [7] 108 % of control | [8] 105 % of control

CC(C)(C)c1ccc(OC(=O)Nc2ccc(O)c(C(=O)O)c2)cc1
inactive: dose: 100.0 mg/kg/injection, schedule: Q01DX001 (ip), vehicle: Klucel (hydroxypropylcellulose) (HPC) 115 % of control | [9] 94 % of control and 98 % of control | dose: 100.0 mg/kg/injection, schedule: Q04DX002 (ip), vehicle: Klucel (hydroxypropylcellulose) (HPC) 96 % of control and 118 % of control | [10] 96 % of control | [11] 94 % of control | dose: 200.0 mg/kg/injection, schedule: Q04DX002 (ip), vehicle: Klucel (hydroxypropylcellulose) (HPC) 92 % of control and 86 % of control | [12] 86 % of control

N#C/C(=C\c1cc(Cl)ccc1O)C1CCC([N+](=O)[O-])CC1 (centres undefined)
inactive: dose: 100.0 mg/kg/injection, schedule: Q04DX002 (ip), vehicle: saline with Tween-80 98 % of control | dose: 200.0 mg/kg/injection, schedule: Q04DX002 (ip), vehicle: saline with Tween-80 113 % of control | dose: 400.0 mg/kg/injection, schedule: Q04DX002 (ip), vehicle: saline with Tween-80 106 % of control

CCOC(=O)CC(N)=O
inactive: dose: 100.0 mg/kg/injection, schedule: Q04DX002 (ip), vehicle: saline 111 % of control | dose: 200.0 mg/kg/injection, schedule: Q04DX002 (ip), vehicle: saline 96 % of control | dose: 400.0 mg/kg/injection, schedule: Q04DX002 (ip), vehicle: saline 104 % of control

CNC(=O)c1ccc[n+](CC(=O)Nc2ccccc2)c1
inactive: [4] 92 % of control | [5] 102 % of control

O=CNNc1ccc([N+](=O)[O-])cc1
inactive: dose: 50.0 mg/kg/injection, schedule: Q01DX009 (ip), vehicle: Klucel (hydroxypropylcellulose) (HPC) 97 % of control | [9] 100 % of control | [10] 94 % of control | [11] 86 % of control | [12] 94 % of control | dose: 400.0 mg/kg/injection, schedule: Q04DX003 (ip), vehicle: Klucel (hydroxypropylcellulose) (HPC) 94 % of control

NC(=S)N1N=C(c2cccc([N+](=O)[O-])c2)CCC1=O
inactive: [6] 92 % of control | [13] 92 % of control | [14] 101 % of control

O=C(O)/C(S)=C\c1ccc(Cl)cc1
inactive: [8] 97 % of control | [15] 94 % of control

COc1ccc(N(CCO)CCO)cc1
inactive: [7] 96 % of control | [8] 102 % of control | [15] 96 % of control

O=C(Oc1ccccc1[N+](=O)[O-])Oc1ccccc1[N+](=O)[O-]
inactive: dose: 100.0 mg/kg/injection, schedule: Q01DX001 (ip), vehicle: carboxymethylcellulose (CMC) 96 % of control | dose: 200.0 mg/kg/injection, schedule: Q01DX001 (ip), vehicle: carboxymethylcellulose (CMC) 93 % of control | dose: 400.0 mg/kg/injection, schedule: Q01DX001 (ip), vehicle: carboxymethylcellulose (CMC) 104 % of control

C/C(=N/N=C(N)N)c1ccc(F)cc1
inactive: dose: 15.0 mg/kg/injection, schedule: Q01DX Z (ip), vehicle: carboxymethylcellulose (CMC) 95 % of control | dose: 15.0 mg/kg/injection, schedule: Q01DX Z (oral), vehicle: carboxymethylcellulose (CMC) 113 % of control | dose: 30.0 mg/kg/injection, schedule: Q01DX Z (ip), vehicle: carboxymethylcellulose (CMC) 100 % of control | dose: 30.0 mg/kg/injection, schedule: Q01DX Z (oral), vehicle: carboxymethylcellulose (CMC) 98 % of control | dose: 60.0 mg/kg/injection, schedule: Q01DX Z (oral), vehicle: carboxymethylcellulose (CMC) 103 % of control

COC1CC(N=[N+]=[N-])C(OC(=O)c2ccccc2)C(C)O1 (centres undefined)
inactive: [6] 110 % of control | [1] 96 % of control | [13] 102 % of control | [2] 100 % of control | [14] 98 % of control | [3] 102 % of control

CC[As](=O)(O)CC
inactive: dose: 50.0 mg/kg/injection, schedule: Q01DX009 (ip), vehicle: saline 97 % of control | dose: 100.0 mg/kg/injection, schedule: Q01DX009 (ip), vehicle: saline 120 % of control | [4] 101 % of control | dose: 200.0 mg/kg/injection, schedule: Q01DX009 (ip), vehicle: saline 105 % of control | [5] 107 % of control

O=Cc1ccc(OC(=O)Nc2ccccc2)cc1
inactive: [6] 92 % of control | [1] 105 % of control | [13] 87 % of control | [2] 94 % of control | [3] 93 % of control

CN(C)C1(Cc2ccc(Cl)cc2)c2ccccc2-c2ccccc21
inactive: dose: 100.0 mg/kg/injection, schedule: Q01DX009 (ip), vehicle: other 94 % of control | dose: 100.0 mg/kg/injection, schedule: Q04DX003 (ip), vehicle: other 105 % of control | dose: 200.0 mg/kg/injection, schedule: Q01DX009 (ip), vehicle: other 98 % of control | dose: 200.0 mg/kg/injection, schedule: Q04DX003 (ip), vehicle: other 100 % of control | dose: 400.0 mg/kg/injection, schedule: Q01DX009 (ip), vehicle: other 104 % of control | dose: 400.0 mg/kg/injection, schedule: Q04DX003 (ip), vehicle: other 115 % of control
